# Measured values reported in patent US20180369111A1, “COMPOSITION COMPRISING BAICALIN AT A HIGH CONCENTRATION” (L'OREAL, priority 2015, published 2018).
# Experiment: Solubility and chemical stability of baicalin in aqueous medium as a function of pH
# Format: physicochemical
# Source text: Baicalin is a polyphenol displaying an antioxidant activity. There is thus a need, for consumers, to provide cosmetic compositions comprising baicalin, or an extract containing same, at a high concentration and having a greater antioxidant efficacy than the cosmetic compositions known in the prior art comprising baicalin. However, the solubility of baicalin is very low in aqueous medium. It is therefore very difficult to incorporate in a composition, in particular a cosmetic composition, at a high mass concentration, in particular at a mass concentration greater than 0.2%. At a mass concentration greater than 0.2%, the appearance of the presence of crystallized baicalin is observed. The present inventors have identified that the solubility of baicalin was increased with the pH.
# In particular, the method implemented to incorporate baicalin, or an extract containing same, at a high mass concentration, i.e. for example greater than 0.5% in the aqueous phase of a composition consists, in a first transitory step, of completely dissolving the baicalin in aqueous phase in a basic medium using a base to raise the pH to a value greater than 6. Under these conditions, it is possible to prepare aqueous solutions comprising up to 10% baicalin as a mass concentration, without using hydrotropic agents.
# Baicalin is presented in the form of a yellow powder, having a purity optionally greater than 90 or 95%. Baicalin crystals may be presented in the form of needles.
compound,measurement,setting,value
O=C(O)[C@H]1O[C@@H](Oc2cc3oc(-c4ccccc4)cc(=O)c3c(O)c2O)[C@H](O)[C@@H](O)[C@@H]1O [Baicalin],baicalin mass concentration attainable in aqueous solution,,up to 10%
same,chemical stability of baicalin,at a pH greater than 6,chemically unstable and is degraded
same,mass concentration above which crystallized baicalin appears,"in a composition, mass concentration",greater than 0.2%
